According to US20250145594A1, “MODULATORS OF THE INTEGRATED STRESS PATHWAY” (Calico Life Sciences LLC, priority 2020, published 2025):

Tested on: ATF4 luciferase reporter in HEK293T cells
Experiment: ATF4-Luc assay (in vitro model of VWMD)
Format: cell-based, human
Details: HEK293T cells carrying the ATF4 luciferase reporter, 1 μg/mL tunicamycin, One Glo luminescence
How it was run: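 Tunicamycin (1 μg/mL) stress with co-added compound for 7 hours in HEK293T cells stably carrying an ATF4 5′-UTR–luciferase reporter. EC50 values come from the luminescent signal (One Glo).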

Q: `O=C(NC12CC(n3cc(CCCCOC(F)(F)F)nn3)(C1)C2)[C@H]1C[C@@H](O)c2cc(Cl)c(F)cc2O1` [Compound 466, (2R,4R)-6-chloro-7-fluoro-4-hydroxy-N-(3-{4-[4-(trifluoromethoxy)butyl]-1H-1,2,3-triazol-1-yl}bicyclo[1.1.1]pentan-1-yl)-3,4-dihydro-2H-1-benzopyran-2-carboxamide] was tested. Which EC50 (Homo sapiens, HEK-293T, 7 h) did it give?
A: < 0.01 µM

Q: Which EC50 (Homo sapiens, HEK-293T, 7 h) does the source give for `O=C(NC12CC(n3cc(-c4ccc(OC(F)(F)F)cn4)cn3)(C1)C2)[C@H]1C[C@@H](O)c2cc(C(F)(F)F)ccc2O1` [Compound 403, (2R,4R)-4-hydroxy-N-(3-{4-[5-(trifluoromethoxy)pyridin-2-yl]-1H-pyrazol-1-yl}bicyclo[1.1.1]pentan-1-yl)-6-(trifluoromethyl)-3,4-dihydro-2H-1-benzopyran-2-carboxamide] here?
A: < 0.01 µM

Q: For `O=C(COc1ccc(Cl)c(F)c1)NC12CCC(n3cc(OCCCOC(F)(F)F)cn3)(C1)C2` [Compound 630, 2-(4-chloro-3-fluorophenoxy)-N-(4-{4-[3-(trifluoromethoxy)propoxy]-1H-pyrazol-1-yl}bicyclo[2.1.1]hexan-1-yl)acetamide], which EC50 (Homo sapiens, HEK-293T, 7 h) is on record?
A: 0.05 to 0.25 µM

Q: Which EC50 (Homo sapiens, HEK-293T, 7 h) does the source give for `O=C(NC12CC(n3cc(-c4ccc(C5CC5)cn4)cn3)(C1)C2)[C@H]1C[C@@H](O)c2cc(Cl)c(F)cc2O1` [Compound 571, (2R,4R)-6-chloro-N-{3-[4-(5-cyclopropylpyridin-2-yl)-1H-pyrazol-1-yl]bicyclo[1.1.1]pentan-1-yl}-7-fluoro-4-hydroxy-3,4-dihydro-2H-1-benzopyran-2-carboxamide] here?
A: < 0.01 µM

Q: Which EC50 (Homo sapiens, HEK-293T, 7 h) does the source give for `O=C(NC12CC(c3ccnc(OCCCOC(F)(F)F)c3)(C1)C2)[C@H]1C[C@@H](O)c2cc(Cl)c(F)cc2O1` [Compound 427, (2R,4R)-6-chloro-7-fluoro-4-hydroxy-N-(3-{2-[3-(trifluoromethoxy)propoxy]pyridin-4-yl}bicyclo[1.1.1]pentan-1-yl)-3,4-dihydro-2H-1-benzopyran-2-carboxamide] here?
A: < 0.01 µM

Q: Which EC50 (Homo sapiens, HEK-293T, 7 h) does the source give for `O=C(NC12CC(c3cn(-c4ccc(Cl)c(F)c4)nn3)(C1)C2)[C@H]1C[C@@H](O)c2cc(Cl)ccc2O1` [Compound 311, (2R,4R)-6-chloro-N-{3-[1-(4-chloro-3-fluorophenyl)-1H-1,2,3-triazol-4-yl]bicyclo[1.1.1]pentan-1-yl}-4-hydroxy-3,4-dihydro-2H-1-benzopyran-2-carboxamide] here?
A: < 0.01 µM

Q: How did the EC50 (Homo sapiens, HEK-293T, 7 h) turn out when `O=C(NC12CC(c3cc(OCCCOC(F)(F)F)ncn3)(C1)C2)[C@H]1C[C@@H](O)c2cc(Cl)ccc2O1` [Compound 648, (2R,4R)-6-chloro-4-hydroxy-N-(3-{6-[3-(trifluoromethoxy)propoxy]pyrimidin-4-yl}bicyclo[1.1.1]pentan-1-yl)-3,4-dihydro-2H-1-benzopyran-2-carboxamide] was run?
A: < 0.01 µM

Q: Which EC50 (7 hours) does the source give for `O=C(COc1ccc(Cl)c(F)c1)NC12CC(c3ccnc(OCCCOC(F)(F)F)c3)(C1)C2` [Compound 602, 2-(4-chloro-3-fluorophenoxy)-N-(3-{2-[3-(trifluoromethoxy)propoxy]pyridin-4-yl}bicyclo[1.1.1]pentan-1-yl)acetamide] here?
A: < 0.01 µM

Q: With `O=C(NC12CC(n3cc(N4CC[C@H](COC(F)(F)F)C4)cn3)(C1)C2)[C@H]1C[C@@H](O)c2cc(Cl)ccc2O1` [Compound 373, (2R,4R)-6-chloro-4-hydroxy-N-[3-(4-{(3S)-3-[(trifluoromethoxy)methyl]pyrrolidin-1-yl}-1H-pyrazol-1-yl)bicyclo[1.1.1]pentan-1-yl]-3,4-dihydro-2H-1-benzopyran-2-carboxamide] as the molecule, how does the EC50 (Homo sapiens, HEK-293T, 7 h) read?
A: 0.05 to 0.25 µM

Q: `O=C(NC12CC(n3cc(-c4ccc(C(F)(F)F)cn4)cn3)(C1)C2)[C@@H]1CNc2cc(Cl)ccc2O1` [Compound 573, (2S)-6-chloro-N-(3-{4-[5-(trifluoromethyl)pyridin-2-yl]-1H-pyrazol-1-yl}bicyclo[1.1.1]pentan-1-yl)-3,4-dihydro-2H-1,4-benzoxazine-2-carboxamide] was tested. Which EC50 (Homo sapiens, HEK-293T, 7 h) did it give?
A: 0.01 to 0.05 µM

Q: With `O=C(NC12CC(n3cc(-c4ccc(C(F)(F)F)cn4)cn3)(C1)C2)C1CNc2cc(Cl)c(F)cc2O1` (stereo not shown) [Compound 574, 6-chloro-7-fluoro-N-(3-{4-[5-(trifluoromethyl)pyridin-2-yl]-1H-pyrazol-1-yl}bicyclo[1.1.1]pentan-1-yl)-3,4-dihydro-2H-1,4-benzoxazine-2-carboxamide] as the molecule, how does the EC50 (Homo sapiens, HEK-293T, 7 h) read?
A: < 0.01 µM

Q: With `O=C(N[C@H]1CC[C@H](n2cc(OCCOC(F)(F)F)cn2)CC1)[C@H]1C[C@@H](O)c2ccccc2O1` [Compound 637, (2R,4R)-4-hydroxy-N-[(1r,4R)-4-{4-[2-(trifluoromethoxy)ethoxy]-1H-pyrazol-1-yl}cyclohexyl]-3,4-dihydro-2H-1-benzopyran-2-carboxamide] as the molecule, how does the EC50 (Homo sapiens, HEK-293T, 7 h) read?
A: 0.05 to 0.25 µM

Q: Which EC50 (Homo sapiens, HEK-293T, 7 h) does the source give for `COc1cc2cn(C34CC(NC(=O)COc5ccc(Cl)c(Cl)c5)(C3)C4)nc2cn1` [Compound 622, 2-(3,4-dichlorophenoxy)-N-[3-(5-methoxy-2H-pyrazolo[3,4-c]pyridin-2-yl)bicyclo[1.1.1]pentan-1-yl]acetamide] here?
A: 0.01 to 0.05 µM

Q: Which EC50 (Homo sapiens, HEK-293T, 7 h) does the source give for `O=C(CO[C@H]1C[C@@H](OC(F)(F)F)C1)N[C@@H]1C[C@@H]2C[C@H]1C[C@H]2NC(=O)[C@H]1C[C@@H](O)c2cc(C(F)(F)F)c(F)cc2O1` [Compound 645, (2R,4R)-7-fluoro-4-hydroxy-N-[(1S,2R,4S,5R)-5-(2-{[(1s,3S)-3-(trifluoromethoxy)cyclobutyl]oxy}acetamido)bicyclo[2.2.1]heptan-2-yl]-6-(trifluoromethyl)-3,4-dihydro-2H-1-benzopyran-2-carboxamide] here?
A: < 0.01 µM

Q: For `O=C(COc1ccc(C(F)(F)F)c(F)c1)N[C@H]1CC[C@H](n2cc(C(=O)N3CC[C@H](OC(F)(F)F)C3)cn2)CC1` [Compound 614, 2-[3-fluoro-4-(trifluoromethyl)phenoxy]-N-[(1S,4r)-4-{4-[(3S)-3-(trifluoromethoxy)pyrrolidine-1-carbonyl]-1H-pyrazol-1-yl}cyclohexyl]acetamide], which EC50 (Homo sapiens, HEK-293T, 7 h) is on record?
A: < 0.01 µM

Q: `O=C(NC12CC(n3cc(-c4ccc(OC(F)(F)F)cn4)cn3)(C1)C2)[C@H]1C[C@@H](O)c2cc(F)c(F)cc2O1` [Compound 369, (2R,4R)-6,7-difluoro-4-hydroxy-N-(3-{4-[5-(trifluoromethoxy)pyridin-2-yl]-1H-pyrazol-1-yl}bicyclo[1.1.1]pentan-1-yl)-3,4-dihydro-2H-1-benzopyran-2-carboxamide] was tested. Which EC50 (Homo sapiens, HEK-293T, 7 h) did it give?
A: < 0.01 µM

Q: Which EC50 (Homo sapiens, HEK-293T, 7 h) does the source give for `O=C(NC12CC(n3cc(-c4ccc(OC(F)F)nc4)cn3)(C1)C2)[C@@H]1C[C@@H](O)c2cc(Cl)ccc2O1` [Compound 332, (2S,4R)-6-chloro-N-(3-{4-[6-(difluoromethoxy)pyridin-3-yl]-1H-pyrazol-1-yl}bicyclo[1.1.1]pentan-1-yl)-4-hydroxy-3,4-dihydro-2H-1-benzopyran-2-carboxamide] here?
A: < 0.01 µM

Q: Which EC50 (Homo sapiens, HEK-293T, 7 h) does the source give for `O=C(COc1ccc(Cl)c(F)c1)NC12CC(n3cc(OCCCOC(F)(F)F)cn3)(C1)C2` [Compound 454, 2-(4-chloro-3-fluorophenoxy)-N-(3-{4-[3-(trifluoromethoxy)propoxy]-1H-pyrazol-1-yl}bicyclo[1.1.1]pentan-1-yl)acetamide] here?
A: < 0.01 µM

Q: How did the EC50 (Homo sapiens, HEK-293T, 7 h) turn out when `O=C(NC12CC(c3ccc(-n4cnc(C(F)(F)F)c4)nc3)(C1)C2)[C@H]1C[C@@H](O)c2cc(Cl)c(F)cc2O1` [Compound 480, (2R,4R)-6-chloro-7-fluoro-4-hydroxy-N-(3-{6-[4-(trifluoromethyl)-1H-imidazol-1-yl]pyridin-3-yl}bicyclo[1.1.1]pentan-1-yl)-3,4-dihydro-2H-1-benzopyran-2-carboxamide] was run?
A: < 0.01 µM
